# Laboratory results: patent US20120208873A1, “TEA POLYPHENOLS PRODUCTS FOR CEASING SMOKING AND TREATING AND/OR PREVENTING NICOTINE OR NICOTINE-DERIVED COMPOUNDS OR ESTROGEN INDUCED BREAST CANCER” (priority 2011, published 2012)
# Like-named read-outs stand apart in the source and are kept apart here.
# Columns and labels:
# α9-nAChR promoter = α9-nAChR promoter luciferase activity assay in MCF-7 cells; type: cell-based, human; settings: 24-h treatment, Nic 10 μM or E2 10 nM, vehicle = one-fold
# Description: All α9-nAChR promoter—luciferase gene fusions were made in the pGL3-Basic vector (Promega, Madison, Wis., USA) by introducing the appropriate α9-nAChR promoter fragments into the polylinker upstream of the luciferase gene. These fragments were generated with restriction enzymes and cloned directly into pGL3-Basic or subcloned first in pBluescript and then transferred to pGL3-Basic. Deletion analysis of the most promoter-proximal region was performed by generating either appropriate restriction enzyme fragments or PCR fragments with suitable sense oligonucleotides and an antisense primer (5′-[…]-3′ (SEQ ID NO:1)) that anneals to the pGL3-Basic vector downstream of the site of transcription initiation.
# MCF-7 cells were plated in 6-well plates. Cells were transiently cotransfected the next day with 1.5 μg of PGL3-Basic plasmid containing the full-length α9-nAChR promoter and 0.1 μg of the RLTK plasmid (Promega) using an MP-100 microporator (Digital Bio), according to the manufacturer's instructions. After incubation for 24 h, the medium was changed to culture medium containing 10% FBS or 0.1% FB S with or without Nic. Cells were lysed 24 h later with 1× Reporter Lysis Buffer (Promega) and stored frozen at −20° C. overnight. Luciferase activity was determined by testing 50 μL of the cell lysate and 50 μL of the Luciferase Assay Reagent (Promega) using a HIDEX Chameleon Microplate Reader. Relative luciferase units were normalized to renilla luciferase from the same cell lysates. Each luciferase assay experiment was performed three times.
# α9-nAChR protein = α9-nAChR protein levels by immunoblotting in MCF-7 cells; type: cell-based, human
# Description: (§1) Human mammary gland epithelial adenocarcinomas (MCF7, MDA-MB-231, AU-565, MDA-MB-453, and BT-483) and normal human mammary gland epithelial fibrocystic cell lines (MCF-10A and HBL-100) were purchased from ATCC (American Type Culture Collection, Manassas, Va., USA). MCF-7, MDA-MB-231, and MDA-MB-453 cells were maintained in DMEM, whereas BT-483 cells were maintained in RPMI-1640. Cell growth, proliferation, and viability were determined by the 3-(4,5-dimethylthiazol-2-yl)-2,5-diphenyltetrazolium (MTT) assay. The formazan product was measured by absorbance at 540 nm.
# (§2) To prepare protein samples, cells were washed once with ice-cold PBS and lysed on ice in cell lysis buffer (50 mM Tris-HCl, pH 8.0, 120 mM […], 0.5% Nonidet P-40, 100 mM sodium fluoride, and 200 μM sodium orthovanadate) containing protease inhibitors as described previously (Shih, Y. L., Liu, H. C., Chen, C. S., Hsu, C. H. et al., J. Agric. Food Chem. 2010, 58, 235-241). Protein (50 μg) from each sample was resolved by 12% SDS-polyacrylamide gel electrophoresis, transferred, and analyzed by Western blotting. Antibodies were purchased from the following vendors: anti-total AKT and protein A/G agarose beads were obtained from Santa Cruz Biotechnology (Santa Cruz, Calif., USA); anti-GAPDH and anti-α9-nAChR antibodies were from Abcam (Cambridge, UK); antiphospho AKT (Ser^473), anti-c-Jun, and anti-c-Fos were from Cell Signaling Technology (Beverly, Mass., USA). The secondary antibodies, alkaline phosphatase-coupled anti-mouse, and anti-rabbit IgG were purchased from Santa Cruz Biotechnology. The specific protein complexes were identified with the chromogenic substrates nitro blue tetrazolium, and 5-bromo-4-chloro-3-indolyl-phosphate from KPL (Gaithersburg, Md., USA). In each experiment, proteins were also probed with anti-GAPDH antibodies as a protein-loading control.
# α9-nAChR mRNA = α9-nAChR mRNA by RT-PCR / real-time PCR in MCF-7 cells; type: cell-based, human
# Description: Total RNA was isolated from human cell lines using TRIzol (Invitrogen, Carlsbad, Calif., USA) according to the manufacturer's protocol. The α9-nAChR subunit-specific primers were synthesized by MB Mission BioTech (Taipei, Taiwan) as described in the previous reports (Chen, C. S., Lee, C. H., Hsieh, C. D., Ho, C. T. et al., Breast Cancer Res. Treat. 2010; Shih, Y. L., Liu, H. C., Chen, C. S., Hsu, C. H. et al., J. Agric. Food Chem. 2010, 58, 235-241). The PCR amplicons were analyzed on 1.2% agarose gels (Amresco, Solon, Ohio, USA) stained with ethidium bromide. The α9-nAChR mRNA intensity was measured and normalized to β-glucuronidase expression. Pictures of the bands were taken using an INFINITY-α digital imaging system (Vilber Lourmat, France), and band intensities were determined using PhotoCapt Version 11.01 software.
# p-AKT (Ser^473) = assay: phosphorylated AKT by immunoblotting in MCF-7 cells; type: cell-based, human; settings: Nic 10 μM or E2 10 nM, 24 h
# Description: as §2
# AP-1 = assay: ChIP assay of AP-1 binding to the α9-nAChR promoter in MCF-7 cells; type: cell-based, human; settings: 24 h after Nic 10 μM
# Description: Chromatin immunoprecipitation (ChIP) assays of cultured cells were performed as described previously (Chen, C. S., Lee, C. H., Hsieh, C. D., Ho, C. T. et al., Breast Cancer Res. Treat. 2010; Shih, Y. L., Liu, H. C., Chen, C. S., Hsu, C. H. et al., J. Agric. Food Chem. 2010, 58, 235-241). Briefly, after various regimens of Nic treatment, the cells were fixed with a final concentration of 1% formaldehyde directly added to the cell culture medium at 25° C. for 15 min. The crosslinking reaction was terminated with 0.125 M glycine for 5 min, and the cells were collected into a new Eppendorf tube. The cell lysate was sonicated three times with 10 s bursts to yield input DNA enriched for fragments around 1000 bp in size. A c-Jun (AP-1) antibody (Santa Cruz Biotechnology) was used for the immunoprecipitation reactions. Primers, which detect the a9-nAChR promoter regions, amplified a region from −960 to −1 for 32 cycles (forward: 5′-ATGCAATG CAAGCCTGAGCT-3′ (SEQ ID NO:2) and reverse: 5′-TATA-[…]-3′ (SEQ ID NO:3)). The PCR products were then separated and analyzed by agarose gel electrophoresis.
# MCF-7 cells = assay: Cell proliferation (MTT assay) in MCF-7 cells; type: cell-based, human; settings: Nic 10 μM
# Description: as §1
# MCF-10A cells = assay: Cell proliferation (MTT assay) in normal MCF-10A cells; type: cell-based, human; settings: Nic 10 μM or EGCG 10-25 μM
# Description: as §1
# [1] = cited from earlier work
# α9-nAChR = target: T1, α9-nAChR (Homo sapiens, UniProt Q9UGM1); settings: MCF-7 cells, previous results, cited from earlier work
# T1 construct: breast cancer cell proliferation induced by Nic could be mediated through endogenous α9-nAChR; endogenous in cells; host or cells: MCF-7 cell monolayers: wild type, scramble control (Sc) and α9-nAChR siRNA knockdown (Si) clones
# T1 sequence (Q9UGM1 26-479 limits assumed): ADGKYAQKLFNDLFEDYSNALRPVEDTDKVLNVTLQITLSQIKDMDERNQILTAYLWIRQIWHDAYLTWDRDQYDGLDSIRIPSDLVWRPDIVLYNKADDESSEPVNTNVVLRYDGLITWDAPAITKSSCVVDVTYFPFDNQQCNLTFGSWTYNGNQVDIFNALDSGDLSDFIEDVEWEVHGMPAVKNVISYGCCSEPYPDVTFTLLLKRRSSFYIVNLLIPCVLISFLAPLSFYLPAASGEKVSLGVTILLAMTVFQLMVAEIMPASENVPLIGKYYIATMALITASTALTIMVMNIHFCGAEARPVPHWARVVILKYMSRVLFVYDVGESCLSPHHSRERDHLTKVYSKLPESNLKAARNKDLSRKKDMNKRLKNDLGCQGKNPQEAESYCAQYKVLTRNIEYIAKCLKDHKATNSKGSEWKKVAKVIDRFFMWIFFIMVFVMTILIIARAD
smiles,measurement,setting,value
"C[C@]12CC[C@@H]3c4ccc(O)cc4CC[C@H]3[C@@H]1CC[C@@H]2O [E2, estradiol]",induction of full-length α9-nAChR promoter luciferase activity,α9-nAChR promoter,2.3 fold
"CN1CCCC1c1cccnc1 (centres unmarked) [Nic, nicotine]",time after Nic treatment at which significant increase in α9-nAChR protein level was detected,α9-nAChR protein,6 h
same,α9-nAChR protein level,α9-nAChR protein,significantly induced
same,time after Nic treatment at which significant increase in α9-nAChR mRNA level was detected,α9-nAChR mRNA; Nic 1 μM time course,6 h
same,α9-nAChR mRNA expression (real-time PCR),"α9-nAChR mRNA; Nic 10 μM or E2 10 nM, 24 h",significantly upregulated
same,levels of p-AKT (Ser^473),p-AKT (Ser^473),significantly increased
same,induction of full-length α9-nAChR promoter luciferase activity,α9-nAChR promoter,41.8 fold
same,binding of AP-1 to the α9-nAChR promoter,AP-1,increased binding
same,cellular proliferation rates in wild-type (C) and scrambled vector control (Sc) cells,MCF-7 cells; MCF-7 (C) and (Sc),significantly increased
same,breast cancer cell growth,"MCF-7 cells; MCF-7, 24 h",significantly stimulated
same,Nic-induced growth effects in α9-nAChR siRNA knockdown (Si) cells,MCF-7 cells; MCF-7 α9-nAChR (Si),almost completely attenuated
same,cell number in normal breast epithelial cells,MCF-10A cells,no changes
same,Nic concentration in gastric juices,[1]; in vivo,> 800 ng/mL
same,Nic concentration in plasma,[1]; in vivo,about 15 ng/mL
same,Nic concentration in saliva,[1]; in vivo,> 1300 ng/mL
same,saliva concentration of nicotine,[1]; in vivo,1 mM
same,serum concentration of nicotine,[1]; in vivo,10 to 100 µM
same,steady-state serum concentration of nicotine,[1]; in vivo,200 nM
same,inhaled Nic absorbed systemically during smoking,[1]; studies using ^14C-Nic,80-90%
"CN1CCCC1c1cccnc1 [[^3H]-Nic, L-(−)-[N-methyl-^3H]-Nic]",Kd,α9-nAChR; read-out: dissociation constant (Kd) of [^3H]-Nic binding,3 nM
"CN(CCCC(=O)c1cccnc1)N=O [NNK, 4-(methylnitrosamino)-1-(3-pyridyl)-1-butanone]",α9-nAChR protein level,"α9-nAChR protein; MCF-7, Nic 0.1-10 μM, NNK 0.1-10 μM or E2 1-200 nM, 24 h, dose-dependent",significantly induced
"[3H]CN1CCCC1c1cccnc1 [[^3H]-Nic, L-(−)-[N-methyl-^3H]-Nic]",time at which maximum binding activity is attained,α9-nAChR,60 min
O=c1cc(N2CCOCC2)oc2c(-c3ccccc3)cccc12 [LY294002],Nic- and E2-induced upregulation of α9-nAChR protein after inhibitor pretreatment,"α9-nAChR protein; MCF-7, 24 h pretreatment (LY294002 25 μM or EGCG 10 μM), then Nic 10 μM or E2 10 nM 24 h",not significantly inhibited
